Laboratory results: patent US20250275996A1, “COMBINATION OF TUNICAMYCIN-TYPE ANTIBIOTIC WITH POLYMYXINS AND USES THEREOF” (priority 2024, published 2025)

Columns and labels:
P. aeruginosa ATCC 2783 = test: MIC by resazurin staining assay, P. aeruginosa; assay type: cell-based, Pseudomonas aeruginosa
Procedure: (§1) The […] growth inhibition (MIC) using natural tunicamycin (TUN), a tunicamycin derivative TunR2, polymyxin B, or a combination of polymyxin B with TUN or TunR2 were tested. Testing was performed using the resazurin staining assay. The resazurin staining assay uses the reduction by bacterial viable cells of the blue, non-fluorescent, and non-toxic dye, resazurin, to pink, fluorescent resorufin to assess the viability of biofilms. The Minimal Inhibitory Concentration (MIC) values where determined using standard microbiological methods, for example by spotting dilutions of the compounds or combinations on solid agar media plates after inoculating with bacteria, yeast, or buffer alone, followed by incubating for a defined period. This method results in clearing zones on agar plates.
(§2) To determine the MIC for polymyxin B alone, plates inoculated with E. coli MG1655 (Gram-negative bacterium), P. aeruginosa ATCC 2783 (Gram-negative bacterium), B. subtilis MW10 (Gram-positive bacterium), S. cerevisiae (eukaryote) in TYG, or DMSO alone (Control) were spotted with a dilution gradient of polymyxin B, and incubated for 24 hours at 30° C.
(§3) To determine the MIC for TUN or TunR2 in the presence or absence of polymyxin B, plates inoculated with E. coli MG1655, or P. aeruginosa ATCC 2783 in TYG, were spotted with a dilution gradient of Tun or TunR2 in the presence or absence of polymyxin B at sub-MIC concentration (MIC/2), or DMSO alone (Control). Images of two plates inoculated with E. coli are shown in FIG. 4A and FIG. 4B, and images of two plates inoculated with P. aeruginosa are shown in FIG. 4C and FIG. 4D.
The activity of Cefquinome alone, or in the presence of TunR2, polymyxin B, or polymyxin B and TunR2 on P. aeruginosa was tested. The MIC was determined using the resazurin staining assay described in Example 1.
Plates inoculated with P. aeruginosa, or DMSO alone (Control) in TYG were spotted with a dilution gradient of Cefquinome in the presence of TunR2, polymyxin B, or polymyxin B and TunR2, and incubated for 24 hours at 37° C.

S. marcescens B-2544 = test: MIC by resazurin staining assay, S. marcescens; assay type: cell-based, Serratia marcescens; details: 24 hours at 37° C.
Procedure: as §1
(§4) The activity of TUN or TunR2 in the presence or absence of polymyxin B on Serratia marcescens (a honey bee pathogen) or E. coli was tested. The MIC was determined using the resazurin staining assay described in Example 1.
Plates inoculated with S. marcescens B-2544, E. coli, or DMSO alone (Control) in TYG were spotted with a dilution gradient of TUN or TunR2 in the presence or absence of a sub-MIC concentration of polymyxin B (half the MIC concentration), and incubated for 24 hours at 37° C. […]

E. coli MG1655 = test: MIC by resazurin staining assay, E. coli; assay type: cell-based, Escherichia coli
Procedure: as §1, §2, §3, §4
Plates inoculated with S. marcescens B-2544, E. coli, or DMSO alone (Control) in TYG were spotted with a dilution gradient of TUN or TunR2 in the presence or absence of a sub-MIC concentration of polymyxin B (half the MIC concentration), and incubated for 24 hours at 37° C. An image of a plate inoculated with S. marcescens is shown in FIG. 7A, and an image of a plate inoculated with E. coli is shown in FIG. 7B. […] The results obtained for E. coli compare well with the MICs of other antibiotics as taught by m. de Boer et al. (2015, “Minimum Inhibitory Concentrations of Selected Antimicrobials Against Escherichia Coli and Trueperella pyogenes of Bovine Uterine Origin,” J Dairy Sci. 98:4427-4438).

S. cerevisiae = test: MIC by resazurin staining assay, yeast; assay type: cell-based, Saccharomyces cerevisiae; details: 24 hours at 30° C., TYG
Procedure: as §1, §2

B. subtilis MW10 = test: MIC by resazurin staining assay, B. subtilis; assay type: cell-based, Bacillus subtilis; details: 24 hours at 30° C., TYG
Procedure: as §1, §2

[1] = alone, dilution series, 24 hours at 37° C.

Q: Which results are given for tunicamycin?
A: effect on P. aeruginosa in the absence of polymyxin B (P. aeruginosa ATCC 2783; [1]): neither Tun nor TunR2 had noticeable effect; growth of P. aeruginosa in the presence of polymyxin B (P. aeruginosa ATCC 2783; with polymyxin B at MIC/2 (2.5 μg/mL), 24 hours at 37° C.): no E. coli or P. aeruginosa grew; MIC in the presence of polymyxin B (S. marcescens B-2544; S. marcescens, sub-MIC polymyxin B (half the MIC)): 5.0 µg/mL; effect on S. marcescens when used alone (S. marcescens B-2544; absence of polymyxin B, any of the concentrations tested): neither TUN nor TunR2 had a detectable effect; MIC in the presence of polymyxin B (E. coli MG1655; Example 2, E. coli, sub-MIC polymyxin B (half the MIC), 24 hours at 37° C.): 0.313 µg/mL; effect on E. coli when used alone (E. coli MG1655; Example 2, absence of polymyxin B, 24 hours at 37° C., any of the concentrations tested): neither TUN nor TunR2 had a detectable effect; effect on E. coli in the absence of polymyxin B (E. coli MG1655; [1]): neither Tun nor TunR2 had noticeable effect; growth of E. coli in the presence of polymyxin B (E. coli MG1655; with polymyxin B at MIC/2 (0.313 μg/mL), 24 hours at 37° C.): no E. coli or P. aeruginosa grew

Q: What does the source list for `CO/N=C(\C(=O)N[C@@H]1C(=O)N2C(C(=O)[O-])=C(C[n+]3cccc4c3CCCC4)CS[C@H]12)c1csc(N)n1` [Cefquinome]?
A: MIC for Cefquinome (FIG. 8 legend) (P. aeruginosa ATCC 2783; P. aeruginosa in TYG, Cefquinome alone, 48 hours at 37° C.): 10.0 µg/mL; MIC for Cefquinome alone (P. aeruginosa ATCC 2783; P. aeruginosa, 24 hours at 37° C.): 10 µg/mL; MIC for Cefquinome in the presence of polymyxin B and TunR2 (P. aeruginosa ATCC 2783; P. aeruginosa, with 2.5 μg/mL polymyxin B and 6.25 μg/mL TunR2, 24 hours at 37° C.): 1.25 µg/mL; MIC for Cefquinome in the presence of polymyxin B (P. aeruginosa ATCC 2783; P. aeruginosa, with 2.5 μg/mL polymyxin B, 24 hours at 37° C.): 5 µg/mL; MIC for Cefquinome in the presence of TunR2 (P. aeruginosa ATCC 2783; P. aeruginosa, with 6.25 μg/mL TunR2, 24 hours at 37° C.): 10 µg/mL

Q: What does the source list for polymyxin B?
A: MIC of polymyxin (P. aeruginosa ATCC 2783; Pseudomonas, polymyxin alone): 5.0 µg/mL; effect on yeast (MIC for polymyxin B alone) (S. cerevisiae): not detectable; MIC of polymyxin (E. coli MG1655; E. coli, polymyxin alone): 0.625 µg/mL; MIC for polymyxin B alone (B. subtilis MW10): 2.5 µg/mL
